Experimental findings from ChEMBL document CHEMBL1201862, “PubChem BioAssay data set” (2004) are described below.

Each structure is given as a SMILES string.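 Briefly, cells in 96-well plates were exposed to five compound concentrations for 48 h, and endpoints were estimated by linear interpolation. GI50 = concentration required for 50% inhibition of growth.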 Calls of active or inactive are those of the source. Rule as the data show it: active = GI50 up to about 1.1 µM and inactive = higher.

For orientation: GI50 means the concentration that inhibits growth by half.

Holding throughout (test): DTP human tumour cell line panel, 48 h
The test system of experiment [1] is M14.
Experiment [2] relates to SF-539.
Experiment [3] relates to SNB-19.
In experiment [4] the test system is MDA-MB-435.
The subject of experiment [5] is T47D.
The test system of experiment [6] is IGROV-1.
Experiment [7] relates to Hs-578T.
Experiment [8] relates to SK-MEL-28.
For experiment [9], the system named is DU-145.
The subject of experiment [10] is PC-3.
The test system of experiment [11] is NCI/ADR-RES.
For experiment [12], the system named is MDA-N.
In experiment [13] the test system is KM12.
The test system of experiment [14] is COLO 205.
Experiment [15] relates to LOX IMVI.
In experiment [16] the test system is RXF 393.
The subject of experiment [17] is SR.
For experiment [18], the system named is HL-60.
The test system of experiment [19] is A498.
For experiment [20], the system named is MCF7.

On to `CCN(CC)c1ccc2cc(C(N)=O)c(=N)oc2c1`, for which the GI50 is 34.4 µM (inactive) in [1]; 4.15 µM (inactive) in experiment [2]; 42.1 µM (inactive) in experiment [3]; 30.9 µM (inactive) in [4]; 23.7 µM (inactive) in experiment [5]; 21.1 µM (inactive) in [6]. The GI50 in experiment [7] was 16.3 µM (inactive); in [8] it was 31.3 µM (inactive); in [9], 40.9 µM (inactive); in [10] it was 26.3 µM (inactive); in experiment [11] it was 53.1 µM (inactive); in experiment [12] it was 38.2 µM (inactive). Further, the GI50 is 31 µM (inactive) in experiment [13]; 35.2 µM (inactive) in [14]; 29.5 µM (inactive) in experiment [15]; 55 µM (inactive) in experiment [16]; 14.6 µM (inactive) in experiment [17]; 36.5 µM (inactive) in experiment [18]. Moreover, the GI50 in experiment [19] is 38.2 µM (inactive).

Take `COc1ccc(/C=C2/CSC/C(=C/c3ccc(OC)c(OC)c3)C2=O)cc1OC`: the GI50 is 3.04 µM (inactive) in experiment [1]; 2.03 µM (inactive) in [2]; 3.5 µM (inactive) in experiment [3]; 2.97 µM (inactive) in experiment [4]; 2.22 µM (inactive) in experiment [20]; 2.21 µM (inactive) in experiment [5]. For the same compound, the GI50 in experiment [6] was 2.28 µM (inactive); in experiment [8] it was 2.94 µM (inactive); in experiment [9] it was 2.88 µM (inactive); in experiment [10], 3.03 µM (inactive); in experiment [11], 1.66 µM (inactive); in experiment [12], 2.58 µM (inactive). Moreover, the GI50 was 0.798 µM (active) in experiment [13]; 2.24 µM (inactive) in experiment [14]; 1.27 µM (inactive) in experiment [15]; 3.34 µM (inactive) in experiment [16]; 0.828 µM (active) in experiment [17]; 1.03 µM (active) in experiment [18]. The GI50 in [19] is 4.93 µM (inactive).

`C#C[C@]1(O)CC[C@H]2[C@@H]3CCC4=C/C(=N/CCOC(=O)c5cccc6c(=O)c7ccccc7[nH]c56)CC[C@@H]4[C@H]3CC[C@@]21C`: the GI50 is 41.7 µM (inactive) in [1]; 90.2 µM (inactive) in experiment [3]; 31.8 µM (inactive) in experiment [4]; 26.1 µM (inactive) in experiment [20]; 20.5 µM (inactive) in [5]; 29.5 µM (inactive) in experiment [6]. Moreover, the GI50 in experiment [7] was 35.2 µM (inactive); in experiment [8], 47.6 µM (inactive); in [9], 32.4 µM (inactive); in [10] it was 18.4 µM (inactive); in experiment [11] it was 40.9 µM (inactive); in experiment [12], 50.7 µM (inactive). Besides, the GI50 in experiment [13] was 30.6 µM (inactive); in [14], 37.1 µM (inactive); in [15] it was 28.3 µM (inactive); in experiment [16], 5.62 µM (inactive); in experiment [18] it was 23.1 µM (inactive); in [19], 58.6 µM (inactive).

Turning to `CC1CC(=O)Nc2nc3ccccc3n21` (configuration not stated), the GI50 in [1], in experiment [2], in [3], in [4], in experiment [20] and in experiment [5] was > 100 µM (inactive) throughout. Further, the GI50 in experiment [6], in experiment [7], in experiment [10], in experiment [11], in experiment [12] and in experiment [13] was > 100 µM (inactive) in each case. For the same compound, the GI50 in experiment [14], in [15], in experiment [16], in experiment [17], in experiment [18] and in experiment [19] was > 100 µM (inactive) throughout.

Take `CCCCCCCCCCCCC(O)C(=O)O` (configuration not stated): the GI50 in [1], in [2], in [3], in experiment [4], in experiment [20] and in [5] was > 100 µM (inactive) throughout. Also, the GI50 in experiment [6], in experiment [7], in experiment [9], in experiment [10], in [11] and in experiment [12] was > 100 µM (inactive) each time. The GI50 in [13] was > 100 µM (inactive); in experiment [14], > 100 µM (inactive); in [15], > 100 µM (inactive); in experiment [18] it was 98.6 µM (inactive); in [19], > 100 µM (inactive).

For the compound `C=C1C(=O)C=C2C=C3C(=O)C(C)(C)C[C@]3(O)C12C` (some centres not stated), the GI50 is 1.73 µM (inactive) in [1]; > 43.2 µM (inactive) in [2]; 29.5 µM (inactive) in experiment [3]; 12.4 µM (inactive) in experiment [4]; 2.15 µM (inactive) in experiment [5]; 18 µM (inactive) in [6]. Further, the GI50 in [7] was 8.22 µM (inactive); in experiment [8], 2.52 µM (inactive); in [9], 18.8 µM (inactive); in experiment [10] it was 3.14 µM (inactive); in [11] it was 28.8 µM (inactive); in experiment [12], 3.76 µM (inactive). Moreover, the GI50 in experiment [13] is 16.2 µM (inactive); in experiment [14], 1.5 µM (inactive); in [15], 5.14 µM (inactive); in [16], 1.48 µM (inactive); in experiment [17], 0.452 µM (active); in experiment [18] it was 0.497 µM (active). The GI50 in [19] is 12.8 µM (inactive).

For the compound `COc1cc(C2c3cc4c(cc3[C@@H](Nc3ccc(F)cc3)C3CO[C@@H](O)[C@H]23)OCO4)cc(OC)c1O` (some centres not stated), the GI50 in experiment [1] was 5.26 µM (inactive); in experiment [2] it was 1.03 µM (active); in [3] it was 3.64 µM (inactive); in experiment [4], 12.3 µM (inactive); in [20], 1.9 µM (inactive); in experiment [5] it was 3.72 µM (inactive). For the same compound, the GI50 in [6] was 7.62 µM (inactive); in experiment [7], 0.697 µM (active); in experiment [8], 7.85 µM (inactive); in experiment [10] it was 3.61 µM (inactive); in [11], 7.36 µM (inactive); in [12] it was 22.2 µM (inactive). The GI50 in experiment [13] was 5.66 µM (inactive); in [14], 5.78 µM (inactive); in [18] it was 0.598 µM (active).

Regarding `CN1C/C(=C\c2cccs2)C(=O)/C(=C/c2cccs2)C1`, the GI50 in experiment [1] was 21.1 µM (inactive); in experiment [3] it was 30.5 µM (inactive); in experiment [4], 16 µM (inactive); in experiment [20], 15.7 µM (inactive); in [5], 20.6 µM (inactive); in experiment [6], 18.9 µM (inactive). In addition, the GI50 in [7] is > 100 µM (inactive); in experiment [8], 52.2 µM (inactive); in [9], 28.6 µM (inactive); in [10] it was 19.2 µM (inactive); in experiment [11] it was 22.1 µM (inactive); in [12] it was 15.6 µM (inactive). Also, the GI50 in [13] was 21 µM (inactive); in experiment [14] it was 24.4 µM (inactive); in experiment [15], 16.3 µM (inactive); in [16] it was 20.3 µM (inactive); in [19] it was 19.7 µM (inactive).
